Assay results from patent publication US20220117920A1, “N-Aryl Benzenesulfonamides as Protonophores for the Treatment of Cancers, Metabolic Diseases and Traumatic Brain Injury” (University of Kentucky Research Foundation, priority 2019, published 2022).

Key:
Wnt signaling = assay: Wnt reporter assay, stable HEK293T cell line containing TOPFlash reporter, LiCl-activated; type: cell-based, human; details: concentration not given
Source text: To identify novel Wnt regulators by high throughput screening, a stable HEK293T cell line containing the TOPFlash reporter was established. To identify Wnt inhibitors that targeted molecular events downstream of β-catenin, we treated these cells with lithium chloride to inhibit GSK3 and to stabilize β-catenin. […] We also validated the results by transient transfection of Super 8× TOPFlash or 8× FOPFlash into HEK293T cells. […] Since the results from the stable and transient transfection are compatible, we used stable cell lines for all of the other experiments.
Reporter assay. Wnt reporter assay and cell staining assay have been described previously. We subcloned Super 8×TOPFlash (provided by Professor Randall Moon, University of Washington) into the pGL4.83 [hRlucP/Puro] Vector and transfected it into HEK293T cells. A stable HEK293T cell line containing the TOPFlash reporter was established using puromycin selection. To screen Wnt inhibitors that block the downstream signaling transduction pathway of β-catenin, we treated the reporter cells with 25 mM LiCl to stabilize β-catenin and activate Wnt signaling. The potential Wnt inhibitors identified from screening were validated by transfecting TOPFlash or FOPFlash plus control renilla reporters into HEK293T cells, and then treating the cells with DMSO or testing compounds in DMSO solution. The Wnt signaling was activated by LiCl or Wnt3A treatment.

AMPK = assay: Western blot of AMPK (T172) and ACC (S79) phosphorylation in CRC cells; type: cell-based, human; details: concentration not given
Procedure: Biochemistry. Western blotting: Cells were lysed in the appropriate volume of lysis buffer: 50 mM HEPES, 100 mM NaCl, 2 mM EDTA, 1% (v/v) glycerol, 50 mM NaF, 1 mM Na3VO4, 1% (v/v) Triton X-100, with protease inhibitors. The following antibodies were used: AMPK (Cell Signaling, 2532, Cell Signaling Technologies, Danver, Mass., USA), pAMPK (Cell Signaling, 2535), ACC (Cell Signaling, 3676), pACC (Cell Signaling, 11818), Actin (Sigma, A1978). Antibodies for Axin 2, c-Myc and Cyclin D1 have been described previously. ATP analysis: Cells growing in 12-well plates were treated with DMSO or inhibitors in DMSO solution and lysed by adding 1 mL boiling doubly distilled water. Supernatants were analyzed by luminescence using ATP Determination Kit (Invitrogen, A22066; Thermo Fisher Scientific, Waltham, Mass., USA).

[1] = tested on: purified mitochondria from mouse liver; assay: Uncoupling assay (OCR) using purified mitochondria from mouse livers; type: biochemical; details: 5 μM/1 μM
Procedure: All the steps were carried out at 4° C. or on ice. After mice were euthanized with CO2 followed by rapid decapitation, whole liver was quickly dissected out on a cold block and homogenized using a Teflon-glass dounce homogenizer containing isolation buffer (215 mM mannitol, 75 mM sucrose, 0.1% BSA, 20 mM HEPES, 1 mM EGTA, adjusted to pH 7.2 with KOH). The homogenate was transferred to a 2 mL-microcentrifuge tube and spun at 1,300×g for 3 min. The supernatant was transferred to a fresh 2 mL-microcentrifuge tube and spun at 13,000×g for 10 min. The supernatant was discarded, and the crude mitochondrial pellet was resuspended in a 1.5 mL-microcentrifuge tubes and pelleted again at 10,000×g for 10 min. The supernatant was discarded, and the mitochondrial pellets were resuspended in isolation buffer to obtain an approximate concentration ≥10 mg/mL of mitochondria. The absolute protein concentration was determined using a bicinchoninic acid (BCA) protein assay kit (Pierce, Cat #23,227) by recording absorbance at 560 nm on a Biotek Synergy HT plate reader (Winooski, Vt., USA).
Mitochondrial Bioenergetics Measurements. Mitochondrial bioenergetic measurements were carried out using a Seahorse XFe96 Extracellular Flux Analyzer (Agilent Technologies, Santa Clara, Calif., USA) to measure oxygen consumption rate (OCR) during various states of respiration. The OCR were measured in the presence of different substrates, inhibitors and uncouplers of the electron transport chain using previous methods with slight modifications. The stocks used for the assays were 500 mM pyruvate, 250 mM malate, and 30 mM adenosine diphosphate (ADP), and 1 M succinate (pH for all was adjusted to 7.2). […] Stock solutions of FH535, Y3, FH535-M, and Y3-M were prepared at 5 mM in 100% DMSO. As per the instructions from XFe96 Extracellular Flux kit, the sensor cartridge was hydrated with water and kept at 37° C. overnight before the experiment. One hour before the assay was conducted, water was removed from assay plates and XF calibrant was added before re-incubation. The injection ports A to D of the sensor cartridge were loaded with 25 μL of different combinations of the above substrates/inhibitors/uncouplers as follows. Before loading, the stocks were diluted appropriately in the respiration buffer (RB) (125 mM KCl, 0.1% BSA, 20 mM HEPES, 2 mM MgCl2, and 2.5 mM KH2PO4; pH 7.2) to get the final concentrations in the respiration chamber of 5 μM pyruvate, 2.5 μM malate, 10 μM of succinate and 1 μM ADP (via Port A), 1 μM oligomycin A (via Port B), 4 μM FCCP or 5 μM/1 μM FH535 or 5 μM/1 μM Y3 or 5 μM/1 μM FH535-M or 5 μM/1 μM Y3-M (via Port C) and 0.1 μM antimycin A (via Port D) starting with the initial volume of 175 μL RB in the chamber and diluting it to 9×, 10×, 11× and 12× with every injection through ports A to D, respectively. Once loaded, the sensor cartridge was placed into the Seahorse XFe96 Flux Analyzer for automated calibration. Seahorse Standard XFe96 assay plates were used for loading mitochondria. Initially total mitochondria were diluted to 6 μg/30 μL in RB and 30 μL was loaded in each well resulting in 6 μg mitochondria/well. The assay plates were centrifuged at 3,000 rpm for 4 min at 4° C. to adhere liver mitochondria at the bottom of the wells. After centrifugation, 145 μL RB (pre-incubated to 37° C.) was added without disturbing the mitochondrial layer to obtain a final volume of 175 μL per well. […]

Huh7 cells [2] = assay: Western blot of autophagy markers LC3II and p62 in Huh7 cells; type: cell-based, human
Source text: (§1) Primary antibodies are described in Table 1.

Huh7 cells [3] = assay: Cyto-ID autophagy detection assay in Huh7 cells; type: cell-based, human; details: Huh7, 40 h, ±50 μM CQ
Procedure: Autophagy responses were monitored with the Cyto-ID autophagy detection reagent 2.0 (Enzo Life Sciences, USA) according to the manufacturer's instructions. Huh7 and PLC/PRF/5 cells were seeded in 12-well plates and treated the following day with drugs or DMSO vehicle control at the indicated concentrations. CQ was added to the corresponding wells to a final concentration of 50 μM 8 h prior harvesting. After 40 h of drug treatment, cells were collected and assessed for viability with Zombie Violet dye solution (BioLegend, USA) followed by Cyto-ID autophagy detection reagent staining. Flow cytometry analyses were performed in a BD LSRII at the Flow Cytometry and Cell Sorting Shared Resource Facility of the University of Kentucky Markey Cancer Center and data were analyzed with the FlowJo Software version 7.6.5 (Tree Star, USA). The autophagic flux was quantified by subtracting the Cyto-ID MFI value of the sample without CQ from the Cyto-ID MFI value of the sample with CQ for each condition according to the formula: […]

Huh7 cells [4] = assay: [3H]-thymidine incorporation assay, Huh7; type: cell-based, human; details: Huh7, 72 h
Procedure: (§2) Huh7, PLC/PRF/5 and Hep3B cells were plated in 96-well plates at 3000-4000 cells/well, treated with the concentrations indicated of FH535 or FH535-N, as single agents or in combination with sorafenib, and cultured for 72 h. ^3H-thymidine incorporation assay was performed as described previously.

PLC/PRF/5 cells [5] = assay: [3H]-thymidine incorporation assay, PLC/PRF/5; type: cell-based, human; details: PLC/PRF/5, 72 h
Procedure: as §2

Hep3B cells = assay: [3H]-thymidine incorporation assay, Hep3B; type: cell-based, human; details: 72 h
Procedure: as §2

Wnt/β-catenin pathway = assay: TOP-Flash TCF4-dependent dual luciferase reporter assay in Huh7 cells; type: cell-based, human; details: Huh7, 10 mM LiCl
Procedure: Cells were plated at 1×10^5 cells/well in 24-well plates and transiently transfected with 490 ng of luciferase-reporter plasmid and 10 ng of phRL-TK per well using the Turbofect transfection reagent (Thermo Scientific, USA). After 5-6 h post-transfection, cells were treated with drug(s) or DMSO vehicle control for 36 h in the presence or absence of LiCl (10 mM). Luciferase assays were performed using the Dual Luciferase Assay System (Promega, USA) according to manufacturer's instructions.

[6] = tested on: Wnt/β-catenin target genes; assay: Expression of downstream β-catenin targets in Huh7 cells (western blot, RT-qPCR); type: cell-based, human; details: Huh7, 36 h
Procedure: as §1
Total RNA was extracted with miRNeasy mini kit (Qiagen, Germany), and the corresponding cDNA was produced using iScript cDNA synthesis kit (BioRad, USA) from 1 μg of total RNA. Real time quantitative PCR (RT-qPCR) was performed using SsoAdvanced Universal SYBR Green supermix (BioRad, USA) with specific primers: p62 (SQSTM1: 5′-[…]-3′ (SEQ ID NO: 1) and 5′-[…]-3′ (SEQ ID NO: 2)); c-MYC (cMYC: 5′-[…]-3′ (SEQ ID NO: 3) and 5′-[…]-3′ (SEQ ID NO: 4)), Survivin (BIRC5, 5′-[…]-3′ (SEQ ID NO: 5) and 5′-[…]-3′ (SEQ ID NO: 6)), AXIN 2 (AXIN2: 5′-[…]-3′ (SEQ ID NO: 7) and 5′-[…]-3′ (SEQ ID NO: 8)), Cyclin D1 (5′-CCND1: […]-3′ (SEQ ID NO: 9) and 5′-[…]-3′ (SEQ ID NO: 10)), and b2-microglobulin (B2M: 5′-[…]-3′ (SEQ ID NO: 11) and 5′-[…]-3′ (SEQ ID NO: 12)). Transcript levels were normalized to β-actin or […] level as indicated using the ΔΔCt method.

Huh7 cells [7] = assay: Annexin V/PI apoptosis assay, Huh7; type: cell-based, human; details: Huh7, 48 h
Procedure: (§3) Apoptosis assay was performed in Huh7 and PLC/PRF/5 cells treated 48 h with DMSO vehicle control or the indicated doses of FH535, FH535-N alone or in combination with sorafenib. Cells were harvested and stained with the APC Annexin V apoptosis detection kit with PI (BioLegend, USA) according to the manufacturing instructions followed by flow cytometry analysis. Flow cytometry data was acquired with an LSRII instrument (BD-Biosciences) and analyzed with FlowJo software (Tree Star).

PLC/PRF/5 cells [8] = assay: Annexin V/PI apoptosis assay, PLC/PRF/5; type: cell-based, human; details: PLC/PRF/5, 48 h
Procedure: as §3

Huh7 cells [9] = assay: Seahorse mitochondrial stress test (OCR) in Huh7 cells; type: cell-based, human; details: Huh7, 24 h
Procedure: Oxygen Consumption Rates (OCR) were measured on an XF-96 Extracellular Flux Analyzer (Seahorse Bioscience) using the protocol and conditions optimized for HCC cells as previously described by our group. Briefly, the experiments were performed by seeding 10,000 and 20,000 Huh7 cells per well in XFe 96 well-plates 36 h before the experiment. Cells were treated for 24 h with FH535, FH535-N or vehicle control. In OCR experiments the media was supplemented with 25 mM Glucose and 1 mM Pyruvate just before the assay. After minimal incubation time (˜20-30 min in non-CO2 37° C. incubator) mitochondrial stress test was initiated. […] All reagents used in the Seahorse experiments were purchased from Sigma-Aldrich. Analyses of data were performed with Wave 2.2 software (Seahorse Bioscience), Excel (Microsoft Office 2013) and Prism 7.0 (GraphPad Software).

O=[N+]([O-])c1ccc(NS(=O)(=O)c2cc(Cl)ccc2Cl)c2ccccc12 [Y3, 2,5-dichloro-N-(4-nitronaphthalen-1-yl)benzenesulfonamide] was tested, and the “inhibition of Wnt signaling” value (Wnt signaling) was “inhibited Wnt signaling”, the AMPK activation (AMPK) was “strongly activated AMPK” and the “uncoupling: OCR blocked by oligomycin” value [1] was “increased OCR in dose-dependent manner”. For the same molecule, the “accumulation of LC3II in the presence of CQ (autophagic flux, ΔLC3II)” value (Huh7 cells [2]; Huh7, 50 μM CQ 8 h) was “reduced at higher doses”, the LC3II protein levels (Huh7 cells [2]; Huh7, 40 h) was “increased” and the p62 protein levels (Huh7 cells [2]; Huh7, 40 h) was “increased”. For the same molecule, the “autophagic flux (Cyto-ID)” value (Huh7 cells [3]) was “reduction in the autophagic flux”, the “cell proliferation (3H-thymidine incorporation)” value (“cell proliferation” below) (Huh7 cells [4]) was “inhibited cell proliferation” and the “cell proliferation” value (PLC/PRF/5 cells [5]) was “inhibited cell proliferation”. For the same molecule, the “cell proliferation” value (Hep3B cells) was “inhibited cell proliferation”, the “Wnt/β-catenin transcriptional activity (TOP-Flash)” value (Wnt/β-catenin pathway) was “reduced the Wnt/β-catenin transcriptional activity” and the “expression of downstream Wnt/β-catenin target genes” value [6] was “reduced”. The “apoptosis (Annexin V/PI)” value (Huh7 cells [7]) was “significant increased rate of apoptosis”, the “apoptosis (Annexin V/PI)” value (PLC/PRF/5 cells [8]) was “significant increased rate of apoptosis” and the “Proton Leak” value (Huh7 cells [9]) was “enhanced Proton Leak”.
